According to ChEMBL document CHEMBL4507267 (2021):

How the values were obtained:
[1] = molecular target: AP2-associated protein kinase 1 (Homo sapiens) (UniProt Q2M2I8); conditions: Compound concentration 1000.0 nM
[2] = test system: Tyrosine-protein kinase ABL1 (Homo sapiens), P00519 [E255K]; conditions: Compound concentration 1000.0 nM
[3] = test system: Tyrosine-protein kinase ABL1 (Homo sapiens), P00519 [M351T]; conditions: Compound concentration 1000.0 nM
[4] = test system: Tyrosine-protein kinase ABL1 (Homo sapiens), P00519 [Q252H]; conditions: Compound concentration 1000.0 nM
[5] = molecular target: RAC-beta serine/threonine-protein kinase (Homo sapiens) (UniProt P31751); conditions: Compound concentration 1000.0 nM
[6] = molecular target: RAC-gamma serine/threonine-protein kinase (Homo sapiens) (UniProt Q9Y243); conditions: Compound concentration 1000.0 nM
[7] = molecular target: Aurora kinase C (Homo sapiens) (UniProt Q9UQB9); conditions: Compound concentration 1000.0 nM
[8] = molecular target: Bone morphogenetic protein receptor type-1B (Homo sapiens) (UniProt O00238); conditions: Compound concentration 1000.0 nM
[9] = molecular target: Protein-tyrosine kinase 6 (Homo sapiens) (UniProt Q13882); conditions: Compound concentration 1000.0 nM
[10] = molecular target: Calcium/calmodulin-dependent protein kinase type 1B (Homo sapiens) (UniProt Q6P2M8); conditions: Compound concentration 1000.0 nM
[11] = molecular target: Calcium/calmodulin-dependent protein kinase kinase 2 (Homo sapiens) (UniProt Q96RR4); conditions: Compound concentration 1000.0 nM
[12] = molecular target: Macrophage colony-stimulating factor 1 receptor (Homo sapiens) (UniProt P07333); conditions: Compound concentration 1000.0 nM
[13] = molecular target: Serine/threonine-protein kinase DCLK3 (Homo sapiens) (UniProt Q9C098); conditions: Compound concentration 1000.0 nM
[14] = molecular target: Serine/threonine-protein kinase MRCK gamma (Homo sapiens) (UniProt Q6DT37); conditions: Compound concentration 1000.0 nM
[15] = test system: Epidermal growth factor receptor (Homo sapiens), P00533 [G719C]; conditions: Compound concentration 1000.0 nM
[16] = molecular target: Ephrin type-A receptor 3 (Homo sapiens) (UniProt P29320); conditions: Compound concentration 1000.0 nM
[17] = molecular target: Receptor tyrosine-protein kinase erbB-4 (Homo sapiens) (UniProt Q15303); conditions: Compound concentration 1000.0 nM
[18] = test system: eIF-2-alpha kinase GCN2 (Homo sapiens), Q9P2K8 [S808G]; conditions: Compound concentration 1000.0 nM
[19] = molecular target: Rhodopsin kinase GRK1 (Homo sapiens) (UniProt Q15835); conditions: Compound concentration 1000.0 nM
[20] = molecular target: Beta-adrenergic receptor kinase 1 (Homo sapiens) (UniProt P25098); conditions: Compound concentration 1000.0 nM
[21] = molecular target: Insulin-like growth factor 1 receptor (Homo sapiens) (UniProt P08069); conditions: Compound concentration 1000.0 nM
[22] = test system: Mast/stem cell growth factor receptor Kit (Homo sapiens), P10721 [A829P]; conditions: Compound concentration 1000.0 nM
[23] = molecular target: Serine/threonine-protein kinase Nek1 (Homo sapiens) (UniProt Q96PY6); conditions: Compound concentration 1000.0 nM
[24] = molecular target: Serine/threonine-protein kinase Nek3 (Homo sapiens) (UniProt P51956); conditions: Compound concentration 1000.0 nM
[25] = molecular target: Phosphorylase b kinase regulatory subunit alpha, liver isoform (Homo sapiens) (UniProt P46019); conditions: Compound concentration 1000.0 nM
[26] = test system: Phosphatidylinositol 4,5-bisphosphate 3-kinase catalytic subunit alpha isoform (Homo sapiens), P42336 [E542K]; conditions: Compound concentration 1000.0 nM
[27] = molecular target: Serine/threonine-protein kinase pim-1 (Homo sapiens) (UniProt P11309); conditions: Compound concentration 1000.0 nM
[28] = molecular target: Phosphatidylinositol 5-phosphate 4-kinase type-2 beta (Homo sapiens) (UniProt P78356); conditions: Compound concentration 1000.0 nM
[29] = molecular target: cAMP-dependent protein kinase catalytic subunit beta (Homo sapiens) (UniProt P22694); conditions: Compound concentration 1000.0 nM
[30] = molecular target: Serine/threonine-protein kinase D1 (Homo sapiens) (UniProt Q15139); conditions: Compound concentration 1000.0 nM
[31] = molecular target: Proto-oncogene tyrosine-protein kinase ROS (Homo sapiens) (UniProt P08922); conditions: Compound concentration 1000.0 nM
[32] = molecular target: Ribosomal protein S6 kinase alpha-5 (Homo sapiens) (UniProt O75582); conditions: Compound concentration 1000.0 nM
[33] = molecular target: Ribosomal protein S6 kinase alpha-3 (Homo sapiens) (UniProt P51812); conditions: Compound concentration 1000.0 nM
[34] = molecular target: Ribosomal protein S6 kinase beta-1 (Homo sapiens) (UniProt P23443); conditions: Compound concentration 1000.0 nM
[35] = molecular target: SRSF protein kinase 3 (Homo sapiens) (UniProt Q9UPE1); conditions: Compound concentration 1000.0 nM
[36] = molecular target: Serine/threonine-protein kinase TAO2 (Homo sapiens) (UniProt Q9UL54); conditions: Compound concentration 1000.0 nM
[37] = molecular target: Dual specificity testis-specific protein kinase 1 (Homo sapiens) (UniProt Q15569); conditions: Compound concentration 1000.0 nM
[38] = molecular target: Serine/threonine-protein kinase TNNI3K (Homo sapiens) (UniProt Q59H18); conditions: Compound concentration 1000.0 nM
[39] = molecular target: Testis-specific serine/threonine-protein kinase 1 (Homo sapiens) (UniProt Q9BXA7); conditions: Compound concentration 1000.0 nM
[40] = molecular target: Wee1-like protein kinase (Homo sapiens) (UniProt P30291); conditions: Compound concentration 1000.0 nM
[41] = molecular target: Serine/threonine-protein kinase WNK4 (Homo sapiens) (UniProt Q96J92); conditions: Compound concentration 1000.0 nM
[42] = molecular target: D(2) dopamine receptor (Homo sapiens) (UniProt P14416); conditions: Compound concentration 10.0 uM
[43] = molecular target: GABA-A receptor; anion channel (Rattus norvegicus) (UniProt O09028+P15431+P18506+P18508+P19969+P20236+P23574+P23576+P28471+P28473+P30191+P62813+P63079+P63138+Q91ZM7+Q9ES14); conditions: Compound concentration 10.0 uM
Histamine H2 receptor = Histamine H2 receptor (Homo sapiens, UniProt P25021); conditions: Compound concentration 10.0 uM

RAC-beta serine/threonine-protein kinase (Homo sapiens), sequence (P31751 whole entry): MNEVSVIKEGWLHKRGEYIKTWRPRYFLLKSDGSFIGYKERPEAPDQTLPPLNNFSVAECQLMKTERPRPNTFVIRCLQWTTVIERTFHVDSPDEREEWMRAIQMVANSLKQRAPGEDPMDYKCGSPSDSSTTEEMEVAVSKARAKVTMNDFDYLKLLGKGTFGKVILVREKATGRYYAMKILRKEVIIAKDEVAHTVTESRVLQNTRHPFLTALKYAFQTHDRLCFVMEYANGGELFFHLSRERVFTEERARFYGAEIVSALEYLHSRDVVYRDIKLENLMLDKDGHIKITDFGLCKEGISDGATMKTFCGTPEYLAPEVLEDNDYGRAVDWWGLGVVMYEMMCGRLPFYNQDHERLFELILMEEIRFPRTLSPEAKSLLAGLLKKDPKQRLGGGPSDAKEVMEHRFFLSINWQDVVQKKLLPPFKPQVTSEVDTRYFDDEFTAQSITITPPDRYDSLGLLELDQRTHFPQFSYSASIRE
Phosphorylase b kinase regulatory subunit alpha, liver isoform (Homo sapiens), sequence (P46019 whole entry, canonical isoform): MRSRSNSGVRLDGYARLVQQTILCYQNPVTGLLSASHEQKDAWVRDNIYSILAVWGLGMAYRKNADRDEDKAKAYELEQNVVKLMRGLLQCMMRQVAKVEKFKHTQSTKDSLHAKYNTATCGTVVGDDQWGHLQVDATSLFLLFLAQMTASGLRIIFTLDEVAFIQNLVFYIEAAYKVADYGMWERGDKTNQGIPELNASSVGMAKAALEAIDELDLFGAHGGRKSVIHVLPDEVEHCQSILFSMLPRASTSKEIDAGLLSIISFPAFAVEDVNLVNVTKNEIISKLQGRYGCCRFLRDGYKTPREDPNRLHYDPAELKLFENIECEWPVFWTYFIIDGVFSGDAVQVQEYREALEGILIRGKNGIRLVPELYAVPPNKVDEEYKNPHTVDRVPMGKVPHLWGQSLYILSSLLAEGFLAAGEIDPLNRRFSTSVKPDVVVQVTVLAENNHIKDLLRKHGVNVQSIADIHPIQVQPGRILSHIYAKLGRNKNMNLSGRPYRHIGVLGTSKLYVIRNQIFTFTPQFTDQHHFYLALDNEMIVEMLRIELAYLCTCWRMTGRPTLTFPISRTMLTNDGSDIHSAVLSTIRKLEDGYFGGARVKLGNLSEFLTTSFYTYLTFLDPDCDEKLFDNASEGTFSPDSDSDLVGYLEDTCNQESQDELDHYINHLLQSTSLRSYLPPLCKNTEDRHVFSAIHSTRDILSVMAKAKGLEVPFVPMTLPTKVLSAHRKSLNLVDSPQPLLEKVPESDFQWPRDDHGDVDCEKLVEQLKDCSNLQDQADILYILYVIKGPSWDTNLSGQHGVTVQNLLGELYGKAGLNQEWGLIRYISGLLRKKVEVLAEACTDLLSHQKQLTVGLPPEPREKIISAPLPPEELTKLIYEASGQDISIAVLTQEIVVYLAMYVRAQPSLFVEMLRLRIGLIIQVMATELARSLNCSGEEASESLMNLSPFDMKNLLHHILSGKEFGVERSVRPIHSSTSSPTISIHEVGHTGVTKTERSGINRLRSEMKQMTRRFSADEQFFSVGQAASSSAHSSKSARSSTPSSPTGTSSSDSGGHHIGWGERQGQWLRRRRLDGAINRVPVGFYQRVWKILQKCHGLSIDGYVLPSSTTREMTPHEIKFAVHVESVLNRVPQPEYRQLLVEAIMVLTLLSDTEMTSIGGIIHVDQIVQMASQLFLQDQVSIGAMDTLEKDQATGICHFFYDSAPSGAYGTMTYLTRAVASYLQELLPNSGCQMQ
Insulin-like growth factor 1 receptor (Homo sapiens), sequence (P08069 31-736 limits assumed): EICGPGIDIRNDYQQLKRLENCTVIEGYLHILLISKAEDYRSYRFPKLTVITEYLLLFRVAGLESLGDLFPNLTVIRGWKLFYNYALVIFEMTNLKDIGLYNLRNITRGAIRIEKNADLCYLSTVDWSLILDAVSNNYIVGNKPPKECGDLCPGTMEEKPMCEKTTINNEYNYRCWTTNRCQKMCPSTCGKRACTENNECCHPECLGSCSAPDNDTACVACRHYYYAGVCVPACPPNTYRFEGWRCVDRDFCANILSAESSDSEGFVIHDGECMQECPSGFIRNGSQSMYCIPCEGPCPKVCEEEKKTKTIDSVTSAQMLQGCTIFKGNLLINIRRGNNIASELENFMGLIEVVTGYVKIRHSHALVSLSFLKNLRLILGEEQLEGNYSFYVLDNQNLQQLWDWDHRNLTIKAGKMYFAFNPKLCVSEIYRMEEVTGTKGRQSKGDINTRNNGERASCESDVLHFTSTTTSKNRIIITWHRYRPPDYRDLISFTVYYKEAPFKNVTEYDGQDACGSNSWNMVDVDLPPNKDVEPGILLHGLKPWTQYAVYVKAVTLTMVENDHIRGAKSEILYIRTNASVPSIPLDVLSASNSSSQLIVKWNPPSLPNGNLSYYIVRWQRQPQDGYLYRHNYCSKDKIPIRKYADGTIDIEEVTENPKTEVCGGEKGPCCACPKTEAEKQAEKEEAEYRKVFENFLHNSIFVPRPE
Insulin-like growth factor 1 receptor (Homo sapiens), sequence (P08069 741-1367 limits assumed): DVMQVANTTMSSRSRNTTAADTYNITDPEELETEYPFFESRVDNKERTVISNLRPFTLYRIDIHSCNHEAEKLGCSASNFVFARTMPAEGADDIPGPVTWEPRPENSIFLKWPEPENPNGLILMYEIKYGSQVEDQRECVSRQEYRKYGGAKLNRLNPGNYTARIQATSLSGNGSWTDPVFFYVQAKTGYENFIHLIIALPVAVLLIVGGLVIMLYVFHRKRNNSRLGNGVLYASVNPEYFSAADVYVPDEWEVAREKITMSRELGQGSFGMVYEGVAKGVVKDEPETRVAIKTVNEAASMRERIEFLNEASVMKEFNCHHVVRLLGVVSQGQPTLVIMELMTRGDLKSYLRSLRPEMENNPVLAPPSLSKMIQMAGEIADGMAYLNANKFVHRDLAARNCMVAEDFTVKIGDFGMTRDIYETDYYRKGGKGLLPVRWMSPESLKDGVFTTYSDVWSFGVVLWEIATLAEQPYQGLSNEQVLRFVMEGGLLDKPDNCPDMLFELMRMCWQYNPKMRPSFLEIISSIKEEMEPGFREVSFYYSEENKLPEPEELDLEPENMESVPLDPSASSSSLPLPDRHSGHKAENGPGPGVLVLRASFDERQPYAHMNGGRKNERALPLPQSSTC
Calcium/calmodulin-dependent protein kinase kinase 2 (Homo sapiens), sequence (Q96RR4 2-588 limits assumed): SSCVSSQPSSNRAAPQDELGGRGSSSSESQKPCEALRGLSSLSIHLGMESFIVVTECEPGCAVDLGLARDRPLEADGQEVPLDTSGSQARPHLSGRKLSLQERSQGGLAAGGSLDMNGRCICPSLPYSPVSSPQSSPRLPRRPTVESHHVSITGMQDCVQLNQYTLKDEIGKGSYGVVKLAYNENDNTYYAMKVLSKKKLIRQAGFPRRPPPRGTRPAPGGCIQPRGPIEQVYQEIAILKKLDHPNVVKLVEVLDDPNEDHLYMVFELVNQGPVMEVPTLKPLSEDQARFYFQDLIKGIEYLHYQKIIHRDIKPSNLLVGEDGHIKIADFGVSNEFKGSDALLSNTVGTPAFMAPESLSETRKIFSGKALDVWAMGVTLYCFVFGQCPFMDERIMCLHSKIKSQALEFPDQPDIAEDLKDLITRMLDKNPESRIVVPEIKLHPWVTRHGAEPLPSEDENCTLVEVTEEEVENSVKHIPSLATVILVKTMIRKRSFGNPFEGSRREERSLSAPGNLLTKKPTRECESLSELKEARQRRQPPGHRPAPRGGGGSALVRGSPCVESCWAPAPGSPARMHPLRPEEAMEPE
AP2-associated protein kinase 1 (Homo sapiens), sequence (Q2M2I8 whole entry, looked up): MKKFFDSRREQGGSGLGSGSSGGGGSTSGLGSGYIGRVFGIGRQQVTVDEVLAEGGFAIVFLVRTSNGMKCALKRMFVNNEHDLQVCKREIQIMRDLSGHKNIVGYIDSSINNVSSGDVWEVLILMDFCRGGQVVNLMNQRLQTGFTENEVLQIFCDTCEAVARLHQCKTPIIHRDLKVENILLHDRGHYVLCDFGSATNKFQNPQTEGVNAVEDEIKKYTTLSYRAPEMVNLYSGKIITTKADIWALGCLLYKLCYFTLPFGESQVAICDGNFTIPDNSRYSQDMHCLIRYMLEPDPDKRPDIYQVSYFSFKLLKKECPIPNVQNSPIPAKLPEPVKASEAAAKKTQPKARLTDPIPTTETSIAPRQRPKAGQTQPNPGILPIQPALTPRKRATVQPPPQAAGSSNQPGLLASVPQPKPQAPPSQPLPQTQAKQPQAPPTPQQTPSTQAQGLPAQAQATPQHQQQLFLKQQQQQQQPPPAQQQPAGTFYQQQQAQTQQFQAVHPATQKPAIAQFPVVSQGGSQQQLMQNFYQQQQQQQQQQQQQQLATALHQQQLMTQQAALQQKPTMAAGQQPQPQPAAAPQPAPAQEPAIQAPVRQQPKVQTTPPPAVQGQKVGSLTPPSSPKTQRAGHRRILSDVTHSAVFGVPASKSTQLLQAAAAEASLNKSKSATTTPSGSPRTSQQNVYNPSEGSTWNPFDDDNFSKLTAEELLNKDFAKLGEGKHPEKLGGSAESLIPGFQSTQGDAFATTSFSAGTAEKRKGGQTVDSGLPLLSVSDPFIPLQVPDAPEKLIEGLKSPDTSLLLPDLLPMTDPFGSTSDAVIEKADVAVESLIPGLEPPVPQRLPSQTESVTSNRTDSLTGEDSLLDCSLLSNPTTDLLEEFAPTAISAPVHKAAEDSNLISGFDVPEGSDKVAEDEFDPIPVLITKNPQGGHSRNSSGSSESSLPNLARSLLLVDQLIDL
Protein-tyrosine kinase 6 (Homo sapiens), sequence (Q13882 whole entry, looked up): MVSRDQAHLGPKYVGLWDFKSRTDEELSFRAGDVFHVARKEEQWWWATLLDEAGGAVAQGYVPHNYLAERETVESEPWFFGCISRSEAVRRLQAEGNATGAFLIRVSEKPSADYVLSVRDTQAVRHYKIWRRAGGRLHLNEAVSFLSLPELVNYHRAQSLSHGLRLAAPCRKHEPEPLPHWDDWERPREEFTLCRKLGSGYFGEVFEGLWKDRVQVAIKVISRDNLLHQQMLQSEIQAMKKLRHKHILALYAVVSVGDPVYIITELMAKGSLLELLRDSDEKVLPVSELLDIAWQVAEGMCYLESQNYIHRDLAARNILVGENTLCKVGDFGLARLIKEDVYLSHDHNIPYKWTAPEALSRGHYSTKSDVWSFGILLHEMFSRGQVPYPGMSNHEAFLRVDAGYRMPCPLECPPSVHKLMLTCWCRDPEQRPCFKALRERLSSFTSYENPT

Cc1c(NC(=O)c2cc(C(N)=O)nc3cc(F)ccc23)c(C(F)(F)F)nn1Cc1ccc(C(C)(C)C)cc1 [BAY-588]
active: residual activity [26] 43%
inactive: residual activity [1] 83% | residual activity [2] 100% | residual activity [3] 100% | residual activity [4] 100% | residual activity [5] 98% | residual activity [6] 100% | residual activity [7] 100% | residual activity [8] 82% | residual activity [9] 100% | residual activity [10] 100% | residual activity [11] 78% | residual activity [12] 100% | residual activity [13] 100% | residual activity [14] 91% | residual activity [15] 71% | residual activity [16] 98% | residual activity [17] 98% | residual activity [18] 56% | residual activity [19] 83% | residual activity [20] 100% | residual activity [21] 100% | residual activity [22] 98% | residual activity [23] 97% | residual activity [24] 100% | residual activity [25] 83% | residual activity [27] 100% | residual activity [28] 91% | residual activity [29] 100% | residual activity [30] 100% | residual activity [31] 100% | residual activity [32] 100% | residual activity [33] 100% | residual activity [34] 100% | residual activity [35] 100% | residual activity [36] 100% | residual activity [37] 100% | residual activity [38] 81% | residual activity [39] 100% | residual activity [40] 100% | residual activity [41] 100% | inhibition [42] 18% | inhibition [43] 9.54% | inhibition (Histamine H2 receptor) 32.4%

Cc1c(NC(=O)c2cc(C(N)=O)nc3cc(F)ccc23)c(C(F)(F)F)nn1Cc1ccc(C#N)cc1 [BAY-876]
active: residual activity [41] -0%
inactive: residual activity [1] 79% | residual activity [2] 76% | residual activity [3] 87% | residual activity [4] 81% | residual activity [5] 98% | residual activity [6] 81% | residual activity [7] 90% | residual activity [8] 77% | residual activity [9] 100% | residual activity [10] 64% | residual activity [11] 92% | residual activity [12] 83% | residual activity [13] 92% | residual activity [14] 91% | residual activity [15] 83% | residual activity [16] 90% | residual activity [17] 95% | residual activity [18] 100% | residual activity [19] 87% | residual activity [20] 87% | residual activity [21] 100% | residual activity [22] 64% | residual activity [23] 95% | residual activity [24] 74% | residual activity [25] 94% | residual activity [26] 84% | residual activity [27] 86% | residual activity [28] 88% | residual activity [29] 93% | residual activity [30] 100% | residual activity [31] 99% | residual activity [32] 97% | residual activity [33] 82% | residual activity [34] 80% | residual activity [35] 100% | residual activity [36] 85% | residual activity [37] 93% | residual activity [38] 100% | residual activity [39] 95% | residual activity [40] 94% | inhibition [42] 8.73% | inhibition [43] 2.64% | inhibition (Histamine H2 receptor) 30.4%
